From PubChem BioAssay (NCI)
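Tested at 5 concentrations; 48 h exposure; 96-well plates; endpoints linearly interpolated, else capped at highest concentration. At the TGI there is no net growth.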

Tests used:
Assay in all cases: DTP human tumour cell line panel, 48 h
A549 NSCLC = tested on: A549 NSCLC
HOP-92 NSCLC = tested on: HOP-92 NSCLC
UACC-257 melanoma = tested on: UACC-257 melanoma
MDA-N = tested on: MDA-N
SK-MEL-28 melanoma = tested on: SK-MEL-28 melanoma
KM12 colon = tested on: KM12 colon
RXF 393 renal = tested on: RXF 393 renal
SK-MEL-2 melanoma = tested on: SK-MEL-2 melanoma
HCT-116 colon = tested on: HCT-116 colon
SK-MEL-5 melanoma = tested on: SK-MEL-5 melanoma
MALME-3M melanoma = tested on: MALME-3M melanoma
RPMI-8226 leukemia = tested on: RPMI-8226 leukemia
HL-60(TB) leukemia = tested on: HL-60(TB) leukemia
PC-3 prostate = tested on: PC-3 prostate
A498 renal = tested on: A498 renal
NCI-H23 lung = tested on: NCI-H23 lung
SNB-75 CNS = tested on: SNB-75 CNS
MCF7 breast = tested on: MCF7 breast
OVCAR-8 ovarian = tested on: OVCAR-8 ovarian
NCI-H460 lung = tested on: NCI-H460 lung
K-562 leukemia = tested on: K-562 leukemia
M14 melanoma = tested on: M14 melanoma
HOP-62 NSCLC = tested on: HOP-62 NSCLC
HT29 colon = tested on: HT29 colon
UACC-62 melanoma = tested on: UACC-62 melanoma
HS 578T breast = tested on: HS 578T breast
COLO 205 colon = tested on: COLO 205 colon
NCI-H226 lung = tested on: NCI-H226 lung
MDA-MB-231 breast = tested on: MDA-MB-231 breast
UO-31 renal = tested on: UO-31 renal
HCC-2998 colon = tested on: HCC-2998 colon
SNB-19 CNS = tested on: SNB-19 CNS
EKVX NSCLC = tested on: EKVX NSCLC
SW-620 colon = tested on: SW-620 colon
SN12C renal = tested on: SN12C renal
BT-549 breast = tested on: BT-549 breast
MOLT-4 leukemia = tested on: MOLT-4 leukemia
U251 CNS = tested on: U251 CNS
IGROV1 ovarian = tested on: IGROV1 ovarian
OVCAR-5 ovarian = tested on: OVCAR-5 ovarian
TK-10 renal = tested on: TK-10 renal
786-0 renal = tested on: 786-0 renal
SR leukemia = tested on: SR leukemia
ACHN renal = tested on: ACHN renal
HCT-15 colon = tested on: HCT-15 colon
NCI/ADR-RES ovarian = tested on: NCI/ADR-RES ovarian
SF-539 CNS = tested on: SF-539 CNS
SK-OV-3 ovarian = tested on: SK-OV-3 ovarian
SF-295 CNS = tested on: SF-295 CNS
NCI-H522 lung = tested on: NCI-H522 lung
MDA-MB-435 = tested on: MDA-MB-435
SF-268 CNS = tested on: SF-268 CNS
DU-145 prostate = tested on: DU-145 prostate
OVCAR-3 ovarian = tested on: OVCAR-3 ovarian
CCRF-CEM leukemia = tested on: CCRF-CEM leukemia
OVCAR-4 ovarian = tested on: OVCAR-4 ovarian
CAKI-1 renal = tested on: CAKI-1 renal
LOX IMVI melanoma = tested on: LOX IMVI melanoma

Measured: TGI

CCOC(=O)c1c(N)sc2c1C(C)(C(=O)OCC)CC2 (stereo not drawn)
83 µM: A498 renal
not listed: NCI/ADR-RES ovarian | SF-539 CNS | SK-OV-3 ovarian | SF-295 CNS | NCI-H522 lung | MDA-MB-435 | SF-268 CNS | DU-145 prostate | OVCAR-3 ovarian | CCRF-CEM leukemia | OVCAR-4 ovarian | CAKI-1 renal | LOX IMVI melanoma
> 100 µM: all other assays above

CN1CNc2nc(N)n(C)c(=O)c2C1
not listed: SK-MEL-28 melanoma | HCT-116 colon | SK-MEL-5 melanoma | RPMI-8226 leukemia | PC-3 prostate | A498 renal | MCF7 breast | HOP-62 NSCLC | HS 578T breast | COLO 205 colon | MDA-MB-231 breast | SW-620 colon | CAKI-1 renal | LOX IMVI melanoma
> 10 µM: all other assays above

COc1ccc(-n2c(=O)[nH]n(C(C)=O)c2=O)cc1
not listed: HOP-62 NSCLC | HCC-2998 colon | BT-549 breast | SK-OV-3 ovarian | OVCAR-3 ovarian
> 100 µM: all other assays above

COc1ccc2c3c1O[C@H]1C(OC)C=CC4C(C2)N(Cc2cccs2)CCC341 (stereo partly drawn)
not listed: SK-MEL-28 melanoma | KM12 colon | RXF 393 renal | SK-MEL-2 melanoma | SK-MEL-5 melanoma | PC-3 prostate | A498 renal | SNB-75 CNS | MCF7 breast | UACC-62 melanoma | COLO 205 colon | NCI-H226 lung | MDA-MB-231 breast | U251 CNS | ACHN renal | SF-539 CNS | DU-145 prostate | OVCAR-4 ovarian
> 100 µM: all other assays above

NCCSC(c1ccccc1)c1ccccc1
31.8 µM: TK-10 renal
29.9 µM: M14 melanoma
29.3 µM: NCI-H460 lung
76.5 µM: HS 578T breast
31.3 µM: UACC-62 melanoma
42.6 µM: MOLT-4 leukemia
38.4 µM: NCI-H522 lung
37.4 µM: RPMI-8226 leukemia
30 µM: UACC-257 melanoma
43 µM: SR leukemia
27.8 µM: IGROV1 ovarian
79.9 µM: SNB-75 CNS
70.1 µM: EKVX NSCLC
62.5 µM: A498 renal
55.6 µM: PC-3 prostate
31.1 µM: SK-MEL-5 melanoma
32.8 µM: SK-MEL-2 melanoma | 786-0 renal
67.2 µM: CAKI-1 renal
40.6 µM: OVCAR-3 ovarian
37.2 µM: HOP-92 NSCLC | SF-539 CNS
33.7 µM: HOP-62 NSCLC
35.6 µM: KM12 colon
46.8 µM: OVCAR-4 ovarian
34 µM: OVCAR-5 ovarian
35.5 µM: HT29 colon
44 µM: OVCAR-8 ovarian
65.6 µM: NCI-H226 lung
37.1 µM: MALME-3M melanoma
33.2 µM: UO-31 renal
31.2 µM: LOX IMVI melanoma
37.3 µM: MDA-MB-231 breast
37.9 µM: SW-620 colon
39.8 µM: RXF 393 renal
38 µM: MCF7 breast
35.7 µM: SK-MEL-28 melanoma | SF-295 CNS
33.3 µM: U251 CNS
93.5 µM: DU-145 prostate
0.793 µM: HL-60(TB) leukemia
34.2 µM: MDA-N
38.7 µM: COLO 205 colon
70.8 µM: SK-OV-3 ovarian
33.8 µM: MDA-MB-435
30.9 µM: HCT-116 colon
not listed: K-562 leukemia | HCC-2998 colon
> 100 µM: all other assays above
